Laboratory results reported in patent publication US11319303B2 (WIGEN BIOMEDICINE TECHNOLOGY (SHANGHAI) CO., LTD., priority 2017, dated 2022).
pIC50: −log10 of the molar value. Counter-ions that a name gives are not always drawn.

Molecular target: LC3B (Homo sapiens, UniProt Q9GZQ8)
Experiment: Fluorescence Polarization (FP) Assay: displacement of FITC-labeled peptide from GST-LC3B
Type: binding
Conditions: Fluorescence Polarization assay; GST-LC3B 180 nM, FITC-labeled peptide 18 nM, 25° C.; read-out: IC50
Procedure: The compounds of the present invention for regulating the autophagy-related protein LC3B were tested by Fluorescence Polarization (FP) Assay.
Fluorescence Polarization (FP) Assay Test

First: O=C1CC(c2ccccc2C(F)(F)F)CC(=O)C1=CO (stereo not drawn) [Compound 426, 2-(hydroxymethylene)-5-(2-trifluoromethylphenyl) cyclohexane-1,3-dione]
Second: COc1ccccc1C1CC(=O)C(=CO)C(=O)C1 (stereo not drawn) [Compound 423, 2-(hydroxymethylene)-5-(2-methoxyphenyl)cyclo-hexane-1,3-dione]
The pIC50 of the first is higher: > 5.52 for the first, 4.82 to 5.52 for the second. The first is the more potent here.

`CC1CC(=O)C(=CNCCN2CCN(CCO)CC2)C(=O)C1` (stereo not drawn) [Compound 14, 2-(((2-(4-(2-hydroxyethyl)piperazin-1-yl)ethyl)amino)methylene)-5-methylcyclohexane-1,3-dione] and `O=C1CC(C2CCNCC2)CC(=O)C1=CNCCN1CCN(CCO)CC1` (stereo not drawn) [Compound 70, 2-(((2-(4-(2-hydroxyethyl)piperazin-1-yl)ethyl)amino)methylene)-5-(piperidin-4-yl) cyclohexane-1,3-dione HCl salt] fall in the same range of pIC50: 3.00 to 4.00 for the first, 3.00 to 4.00 for the second.

Compared with `O=C1Nc2c(F)cccc2C(=O)/C1=C/NCCN1CCN(CCO)CC1` [Compound 195, 8-fluoro-3-(((2-(4-(2-hydroxyethyl)piperazin-1-yl)ethyl)amino)methylene) quinoline-2,4 (1H,3H)-dione], `O=C1Nc2c(cccc2C(F)(F)F)C(=O)/C1=C/NCCN1CCN(CCO)CC1` [Compound 197, 3-(((2-(4-(2-hydroxyethyl)piperazin-1-yl)ethyl)amino)methylene)-8-(trifluoromethyl) quinoline-2,4(1H,3H)-dione] is higher in pIC50: 4.82 to 5.52 for the first, > 5.52 for the second.

First: COc1ccc2[nH]cc(C3CC(=O)C(=CNCCN4CCN(CCO)CC4)C(=O)C3)c2c1 (stereo not drawn) [Compound 186, 2-(((2-(4-(2-hydroxyethyl)piperazin-1-yl)ethyl)amino)methylene)-5-(5-methoxy-1H-indol-3-yl)cyclohexane-1,3-dione]
Second: COc1ccc(C2CC(=O)C(=CNCCN3CCN(CCO)CC3)C(=O)C2)c2ccccc12 (stereo not drawn) [Compound 54, 2-(((2-(4-(2-hydroxyethyl)piperazin-1-yl)ethyl)amino)methylene)-5-(4-methoxy-naphthalen-1-yl)cyclohexane-1,3-dione]
The pIC50 of the first is lower: 4.82 to 5.52 for the first, > 5.52 for the second. The second is the more potent here.

First: O=C1CC(c2ccccc2)CC(=O)C1=CNCCCCO (stereo not drawn) [Compound 132, 2-(((4-hydroxybutyl)amino)methylene)-5-phenylcyclohexane-1,3-dione]
Second: C[C@H](NC=C1C(=O)CC(c2ccccc2)CC1=O)C(=O)O (stereo partly drawn) [Compound 121, ((2,6-dioxo-4-phenylcyclo-hexylidene)methyl)-L-alanine]
The pIC50 of the first is lower: 3.00 to 4.00 for the first, 4.00 to 4.82 for the second. The second is the more potent here.

`CN(C)CCNC=C1C(=O)CC(c2c(F)cccc2F)CC1=O` (stereo not drawn) [Compound 383, 5-(2,6-difluorophenyl)-2-(((2-(dimethylamino)ethyl)amino)methylene) cyclohexane-1,3-dione] and `CN(C)CCNC=C1C(=O)CC(c2ccc(F)cc2Cl)CC1=O` (stereo not drawn) [Compound 370, 5-(2-chloro-4-fluorophenyl)-2-(((2-(dimethylamino)ethyl)amino)methylene) cyclohexane-1,3-dione] cannot be ordered by pIC50: > 5.52 for the first, > 5.52 for the second.

`Cc1cccc(Cc2ccccc2C2CC(=O)C(=CN(C)C)C(=O)C2)c1` (stereo not drawn) [Compound 290, 2-((dimethylamino)methylene)-5-(2-(3-methylbenzyl)phenyl) cyclohexane-1,3-dione] and `Cc1ccc(Cc2ccccc2C2CC(=O)C(=CN(C)C)C(=O)C2)cc1` (stereo not drawn) [Compound 291, 2-((dimethylamino)methylene)-5-(2-(4-methylbenzyl)phenyl) cyclohexane-1,3-dione] fall in the same range of pIC50: 4.82 to 5.52 for the first, 4.82 to 5.52 for the second.

First: CC(C)Cn1cccc1C1CC(=O)C(=CN(C)C)C(=O)C1 (stereo not drawn) [Compound 284, 2-((dimethylamino)methylene)-5-(1-isobutyl-1H-pyrrol-2-yl)cyclohexane-1,3-dione]
Second: Cc1cccc2c(C3CC(=O)C(=CN(C)C)C(=O)C3)c[nH]c12 (stereo not drawn) [Compound 297, 2-((dimethylamino)methylene)-5-(7-methyl-1H-indol-3-yl)cyclohexane-1,3-dione]
The pIC50 of the first is lower: 4.82 to 5.52 for the first, > 5.52 for the second. The second is the more potent here.

Compared with `CN(C)C=Nc1nc2c(C3CC(=O)C(=CNCCN4CCN(CCO)CC4)C(=O)C3)cccc2s1` (stereo not drawn) [Compound 74, N′-(4-(4-(((2-(4-(2-hydroxyethyl)piperazin-1-yl)ethyl)amino)methylene)-3,5-dioxocyclohexyl)benzo[d]thiazol-2-yl)-N,N-dimethyl-formimidamide], `O=C1CC(c2ccccn2)CC(=O)C1=CNCCN1CCN(CCO)CC1` (stereo not drawn) [Compound 53, 2-(((2-(4-(2-hydroxyethyl)piperazin-1-yl)ethyl)amino)methylene)-5-(pyridin-2-yl) cyclohexane-1,3-dione] is lower in pIC50: > 5.52 for the first, 4.00 to 4.82 for the second. The first is the more potent here.

First: O=C1CC(c2ccccc2[N+](=O)[O-])CC(=O)C1=CO (stereo not drawn) [Compound 434, 2-(hydroxymethylene)-5-(2-nitrophenyl)cyclo-hexane-1,3-dione]
Second: O=C1CC(c2cccc3[nH]ccc23)CC(=O)C1=CO (stereo not drawn) [Compound 460, 2-(hydroxy-methylene)-5-(1H-indol-4-yl)cyclo-hexane-1,3-dione sodium salt]
The pIC50 of the first is lower: 4.82 to 5.52 for the first, > 5.52 for the second.

`CCCNC(=O)N1CCN(CCNC=C2C(=O)CC(c3ccc(C)cc3)CC2=O)CC1` (stereo not drawn) [Compound 228, 4-(2-(((2,6-dioxo-4-(p-tolyl)cyclohexylidene)methyl)amino)ethyl)-N-propylpiperazine-1-carboxamide] and `C=C(C)C(=O)N1CCN(CCNC=C2C(=O)CC(c3ccc(C)cc3)CC2=O)CC1` (stereo not drawn) [Compound 233, 2-(((2-(4-methacryloyl-piperazin-1-yl)ethyl)amino)methylene)-5-(p-tolyl) cyclohexane-1,3-dione] cannot be ordered by pIC50: > 5.52 for the first, > 5.52 for the second.

First: CN(C)C(=O)N1CCN(CCNC=C2C(=O)CC(c3ccccc3)CC2=O)CC1 (stereo not drawn) [Compound 214, 4-(2-(((2,6-dioxo-4-phenylcyclo-hexylidene)methyl)amino)ethyl)-N,N-dimethylpiperazine-1-carboxamide]
Second: CC(NCCN1CCN(CCO)CC1)=C1C(=O)CC(c2ccccc2)CC1=O (stereo not drawn) [Compound 108, 2-(1-((2-(4-(2-hydroxyethyl)piperazin-1-yl)ethyl)amino)ethylidene)-5-phenylcyclohexane-1,3-dione]
The pIC50 of the first is higher: > 5.52 for the first, 3.00 to 4.00 for the second.

Compared with `CCOC(=O)[C@H](Cc1ccccc1)NC=C1C(=O)CC(c2ccccc2)CC1=O` (stereo partly drawn) [Compound 124, (l)-ethyl ((2,6-dioxo-4-phenylcyclo-hexylidene)methyl) phenylalaninate], `NCCOC(=O)[C@H](Cc1ccccc1)NC=C1C(=O)CC(c2ccccc2)CC1=O` (stereo partly drawn) [Compound 178, 2-aminoethyl ((2,6-dioxo-4-phenylcyclo-hexylidene)methyl)-L-phenylalaninate hydrochloride] is higher in pIC50: 3.00 to 4.00 for the first, 4.00 to 4.82 for the second. The second is the more potent here.

`CN(C)CCNC=C1C(=O)CC(c2c[nH]c(-c3ccccc3)c2)CC1=O` (stereo not drawn) [Compound 414, 2-(((2-(dimethylamino)ethyl)amino)methylene)-5-(5-phenyl-1H-pyrrole-3-yl)cyclohexane-1,3-dione] and `CC(=O)Nc1ccccc1C1CC(=O)C(=CNCCN(C)C)C(=O)C1` (stereo not drawn) [Compound 345, N-(2-(4-(((2-(dimethylamino)ethyl)amino)methylene)-3,5-dioxocyclohexyl)phenyl) acetamide] fall in the same range of pIC50: 4.82 to 5.52 for the first, 4.82 to 5.52 for the second.

`CN1CCC(NC=C2C(=O)CC(c3ccccc3)CC2=O)CC1` (stereo not drawn) [Compound 142, 2-(((1-methylpiperidin-4-yl)amino)methylene)-5-phenylcyclohexane-1,3-dione] and `O=C1CC(c2ccccc2)CC(=O)C1=CNC1CCNCC1` (stereo not drawn) [Compound 140, 5-phenyl-2-((piperidin-4-ylamino)methylene) cyclohexane-1,3-dione hydrochloride] fall in the same range of pIC50: 4.00 to 4.82 for the first, 4.00 to 4.82 for the second.

`CC1(c2ccccc2)CC(=O)C(=CNCCN2CCN(CCO)CC2)C(=O)C1` (stereo not drawn) [Compound 29, 2-(((2-(4-(2-hydroxyethyl)piperazin-1-yl)ethyl)amino)methylene)-5-methyl-5-phenylcyclohexane-1,3-dione] and `O=C1CC(c2ccccc2)NC(=O)C1=CNCCN1CCN(CCO)CC1` (stereo not drawn) [Compound 96, 3-(((2-(4-(2-hydroxyethyl)piperazin-1-yl)ethyl)amino)methylene)-6-phenylpiperidine-2,4-dione] fall in the same range of pIC50: 3.00 to 4.00 for the first, 3.00 to 4.00 for the second.

`COCCOc1cc(C2CC(=O)C(=CNCCN3CCN(CCO)CC3)C(=O)C2)ccc1OC` (stereo not drawn) [Compound 80, 2-(((2-(4-(2-hydroxyethyl)piperazin-1-yl)ethyl)amino)methylene)-5-(4-methoxy-3-(2-methoxyethoxy)phenyl) cyclohexane-1,3-dione] and `O=C1CC(c2ncnc3sccc23)CC(=O)C1=CNCCN1CCN(CCO)CC1` (stereo not drawn) [Compound 27, 2-(((2-(4-(2-hydroxyethyl)piperazin-1-yl)ethyl)amino)methylene)-5-(thieno[2,3-d]pyrimidin-4-yl)cyclohexane-1,3-dione] fall in the same range of pIC50: 4.00 to 4.82 for the first, 4.00 to 4.82 for the second.

Compared with `Cc1ccc(C2CC(=O)C(=CNCCN3CCN(S(=O)(=O)c4ccc(C)cc4)CC3)C(=O)C2)cc1` (stereo not drawn) [Compound 227, 5-(p-tolyl)-2-(((2-(4-tosylpiperazin-1-yl)ethyl)amino)methylene) cyclohexane-1,3-dione], `COc1cc(OC)c2c(c1Cl)O[C@@]1(C(=O)/C(=C\NCCN3CCN(CCO)CC3)C(=O)C[C@H]1C)C2=O` [Compound 15, (2R,6′R)-7-chloro-3′-(((2-(4-(2-hydroxyethyl)piperazin-1-yl)ethyl)amino)methylene)-4,6-dimethoxy-6′-methyl-3H-spiro[benzofuran-2,1′-cyclohexane]-2′,3,4′-trione] is higher in pIC50: 3.00 to 4.00 for the first, 4.82 to 5.52 for the second. The second is the more potent here.

Compared with `O=C1CC(c2c(C(F)(F)F)ccc(Cl)c2F)CC(=O)C1=CO` (stereo not drawn) [Compound 447, 2-(hydroxymethylene)-5-((2-fluoro-3-chloro-6-trifluoromethyl)phenyl)cyclohexane-1,3-dione], `CSC=C1C(=O)CC(c2ccccc2)CC1=O` (stereo not drawn) [Compound 4A, 2-((methylthio)methylene)-5-phenylcyclohexane-1,3-dione] is lower in pIC50: > 5.52 for the first, 4.82 to 5.52 for the second.

`O=C(NCCN1CCN(CCO)CC1)C1C(=O)Nc2ccccc2C1=O` (stereo not drawn) [Compound 326, N-(2-(4-(2-hydroxyethyl)piperazin-1-yl)ethyl)-2,4-dioxo-1,2,3,4-tetrahydroquinoline-3-carboxamide] showed a pIC50 of 3.00 to 4.00.
